Data taken from ChEMBL document CHEMBL1649383, “Mode of action of epoxyphomalins A and B and characterization of related metabolites from the marine-derived fungus Paraconiothyrium sp” (J Nat Prod, 2010).

Legend:
[1] = species on record: Homo sapiens; assay: Inhibition of caspase like activity of human erythrocyte-derived 20S proteasome after 60 mins by fluorescence assay
[2] = species on record: Homo sapiens; assay: Inhibition of trypsin like activity of human erythrocyte-derived 20S proteasome after 60 mins by fluorescence assay
[3] = species on record: Homo sapiens; assay: Inhibition of chymotrypsin like activity of human erythrocyte-derived 20S proteasome after 60 mins by fluorescence assay

Measured: Activity

CC1=C[C@@H](O)[C@]2(C[C@H]3C(C)=CC[C@H]4[C@](C)(CO)CCC[C@]34C)O[C@@H]2C1=O
active: [1] Dose-dependent effect | [2] Dose-dependent effect | [3] Dose-dependent effect

CC1=CC[C@H]2[C@](C)(CO)CCC[C@]2(C)[C@H]1C[C@@]12O[C@@H]1C(=O)C(CO)=C[C@H]2O
active: [1] Dose-dependent effect | [2] Dose-dependent effect | [3] Dose-dependent effect
